“And” between values parts separate entries of the source, which are not always exact repeats. Equal values may be shown once.
Columns and labels:
[1] = cited from earlier work
[2] = system: rabbits; experiment: Eye irritation rabbits; settings: rabbit, in vivo
[3] = Biodegradability
[4] = system: Fish; experiment: Fish toxicology LC50, OECD 203, 96 h; type: in vivo; settings: for Fish toxicology LC50: OECD 203, 96 h; for times less toxic for fish compared to a fatty amine ethoxylate: in vivo
Description: (§1) The low toxicity of coconut fatty acid copolymers with glycerol is illustrated by the following table

[5] = system: daphnia; experiment: Acute daphnia immobilization EC50, OECD 202; type: in vivo; settings: for times less toxic for daphnia compared to a fatty amine ethoxylate: in vivo
Description: as §1

[6] = 1,4-Dioxane content (carcinogen)
Description: The inevitable presence of 1,4-dioxane in all ethoxylated products is the reason why all ethoxylates including coco amide ethoxylates were excluded from consideration in the product of the present invention.

[7] = system: rats; experiment: Acute oral toxicology LD50 in rats; type: in vivo
[8] = system: variety of weeds; experiment: Extensive field tests in Brazil and South Africa versus standard 360 g/liter liquid formulation; type: in vivo; settings: surfactant in the glyphosate formulation
Experimental: The product was extensively tested on the field. During eighteen months the soluble powder formulation was applied in different dosages on a variety of weeds in the state of Paraná, Brazil and in the province of […] in the Republic of South Africa and the results were compared with those obtained applying the standard product 360 g/liter liquid formulation side by side on the same fields.
More than one hundred field tests of the Soluble Powder were carried out. Each test consisted in applying different dosages of glyphosate acid on the field using the Soluble Powder object of the present invention and similar dosages of the standard 360 g/liter liquid formulation and comparing the results obtained side by side on the same field. Phytotoxicity of the weeds was measured by sampling and visual counting. All results were recorded and photographs taken before and after the tests.

O=C(O)CNCP(=O)(O)O [Glyphosate, N-(phosphonomethyl)-glycine]
solubility in water [1]: insoluble

Coco amide propyl amine oxide
Eye irritation rabbits [2]: Irritant | Biodegradability [3]: >90% | Fish toxicology LC50 [4]: 6 mg/l and >6 mg/l | times less toxic for fish compared to a fatty amine ethoxylate [4]: 15 times | times less toxic for daphnia compared to a fatty amine ethoxylate [5]: 100 times

Fatty amine ethoxylate [reference compound]
Eye irritation rabbits [2]: Serious eye | Biodegradability [3]: <60% | 1,4-Dioxane content (carcinogen) [6]: Up to 25,000 ppm | Fish toxicology LC50 [4]: 0.42 mg/l | Acute daphnia immobilization EC50 ([5]; OECD 202): 0.46 µg/mL | Acute oral toxicology LD50 [7]: 200-2000 mg/kg

coco amide propyl betaine
efficiency as surfactant compared with coco amide propyl amine oxide [8]: just as efficient | times less toxic for fish compared to a fatty amine ethoxylate [4]: 15 times | times less toxic for daphnia compared to a fatty amine ethoxylate [5]: 100 times

coconut oil polymer with glyceryl and phthalic anhydride
Biodegradability [3]: >42%

Source: patent publication US9320281B2, “Readied in situ glyphosate herbicide soluble powder composition and its preparation process” (ALLVET QUIMICA INDUSTRIAL LTDA., priority 2011, dated 2016)
